Source: patent US20070276032A1, “Use of 8-Prenylnaringenin for Hormone Replacement Therapy” (priority 2003, published 2007)
Where “and” joins values, the source holds several entries; their conditions need not be identical. Identical values can stand only once.

Experiments:
ovariectomized rats [1] = assay: Relative uterine weight, 2S(−) 8-PN in ovariectomized rats (Example 3); assay type: in vivo, Sprague-Dawley rats
Protocol: (§1) The aim of the study was to examine bone and uterine effects of a 4-week treatment with 2S(−) 8-Prenylnaringenin (8-PN) in 3-month-old ovariectomized rats. […] At the end of the study, uterine weight and ex vivo bone mineral density (BMD) of tibia were measured.
(§2) A total of 30 female 13-14-week-old Sprague-Dawley rats were used in the study. The animals were randomized into 5 groups, with 6 rats/group. Group 1 was sham-operated (SHAM) and groups 2-5 were ovariectomized (OVX).
(§3) Treatments with the vehicle or test substance started on the day following operation. […] The animals were sacrificed one day after the last dosing. At the end of the study, left tibiae were excised for ex vivo BMD measurement (pQCT) at proximal tibia and uteri were excised for the determination of absolute and relative weights. In addition, samples for the determination of 2S(−)8-Prenylnaringenin concentration were taken from all dosing solutions on the day when they were prepared and on the last day of use. The data of body weights, relative uterine weights and BMD were analyzed with one-way analysis of variance.
Relative uterine weight was calculated as percentage of body weight

ERE-Luc = assay: Estrogenic activity in the estrogen reporter mouse ERE-Luc model, luciferase activity in organs (Example 5); assay type: in vivo, mice
Protocol: In order to avoid experimental noise male animals were used.
Fourtyfive heterozygous male ERE-Luc mice of two months of age were fed with soy-free diet for two weeks before assigning them to each experimental group then all the mice were injected intraperitoneally (i.p.) with 250 μl of an oily solution containing the following compounds: • 1. Experimental group 1: vehicle • 2. Experimental group 2: 17β-estradiol at 1.5 μg/kg • 3. Experimental group 3: 2S(−)-8-PN at 30 mg/kg • 4. […] Experimental group 5: genistein at 30 mg/kg.
The treatment was carried out in experimental groups of three mice each and repeated three times (therefore numbers reflect the average of […] determinations on a total of 9 animals).
Six hours after the injection, mice were sacrificed by cervical dislocation and organs were dissected and frozen on dry ice. The following organs were analyzed for lucifererase activity by enzymatic assay: prostate, liver, bone, brain.
Data represent means ±standard deviation of N=9 animals per group.
Analysis of variance (ANOVA) for overall comparison was followed by Tukey test for paired comparisons. All statistical procedures were carried out with Systat and SAS (*P<0.05; **P<0.01).

[2] = reported; cited from earlier work
[3] = at the bone loss protective dose; Miyamoto et al 1998; cited from earlier work
ovariectomized rats [4] = assay: Ex vivo BMD (pQCT) of proximal tibia, 2S(−) 8-PN in ovariectomized rats (Example 3); set-up: species or system Sprague-Dawley rats; conditions: animal study with synthetic relatively pure preparation
Protocol: as §1, §2, §3
Bone mineral density measurement was carried out by pQCT (XCT-960A, Stratec, Germany). The bone specimens were thawed before measurement. Six 1 mm-thick sections of the proximal tibia (2 mm below the epiphyseal growth plate) were scanned at 0.5 mm intervals using a voxel size of 0.148 mm. Total and trabecular BMD (mg/cm^3) were measured. After bone densitometry, the specimens were wrapped back to saline saturated gauzes and stored at −20° C.

ovariectomized rats [5] = assay: Trabecular density of proximal tibia, 8-PN racemic, 2S(−) 8-PN and estradiol hemihydrate in ovariectomized rats (Example 4); assay type: in vivo, Sprague-Dawley rats; conditions: OVX rats; s.c. 28 days; 20 mg/kg/d in HP-β-CD
Protocol: (§4) The aim of the study was to directly compare the effects of Prenylnaringenin (racemate) and 2S(−) 8-Prenylnaringenin to the effects of estradiol hemihydrate on bone mineral density and uterine weight on 3-month-old ovariectomized rats using identical formulations. In addition, the effects of estradiolhemihydrate in two vehicles (oily, aqueous) were examined for influence of formulations. The substances were administered subcutaneously(s.c.) seven days a week beginning the day after ovariectomy. At the end of the study, uterine weight and bone mineral density (BMD) of tibia were measured.
(§5) Forty-one female Sprague-Dawley rats, 12-14 weeks of age were randomized into six groups, 6-8 animals in each. Five groups were ovariectomized (OVX) and one group was sham-operated (SHAM). Treatments started on the day following operation and continued for 28 days. The animals were treated s.c. once a day seven times a week as follows. Group 1 (SHAM vehicle group) and group 2 (OVX vehicle group) were given the vehicle 30% hydroxypropyl-β-cyclodextrin (HP-β-CD). Groups 3 and 4 were administered 4 μg/kg/d of estradiol hemihydrate in vehicle benzyl benzoate/ricinus oil (B/R) and in vehicle HP-β-CD, respectively. Groups 5 and 6 were given 20 mg/kg/d of 2S(−)8-Prenylnaringenin and racemic 8-Prenylnaringenin, respectively, both in vehicle HP-β-CD. At the end of the study, left tibiae were excised for the ex vivo BMD […] were taken from all dosing solutions on the first and last day of use.
(§6) Vehicle 1 (used in the groups 1 and 2): 30% hydroxypropyl-β-cyclodextrin and 0.3% NaCl (w/v), 5% ethanol (v/v) in Aqua sterilisata, pH 7.4.
(§7) Vehicle 2 (used when preparing dosing solutions of the groups 4, 5 and 6): 30% hydroxypropyl-β-cyclodextrin and 0.3% NaCl (w/v) in Aqua sterilisata, pH 7.4.
(§8) Vehicle 3 (used when preparing a dosing solution of the group 3): benzyl benzoate/ricinus oil (B/R) 1+4, v/v.

ovariectomized rats [6] = assay: Relative uterus weight, 8-PN racemic, 2S(−) 8-PN and estradiol hemihydrate in ovariectomized rats (Example 4); assay type: in vivo, Sprague-Dawley rats; conditions: OVX rats
Protocol: as §4, §5, §6, §7, §8

[7] = Body weight, 8-PN racemic, 2S(−) 8-PN and estradiol hemihydrate in ovariectomized rats (Example 4); assay type: in vivo, Sprague-Dawley rats; conditions: OVX rats; s.c. once a day, 28 days; 20 mg/kg/d in HP-β-CD
Protocol: as §4, §5, §6, §7, §8

[8] = s.c. 28 days, 20 mg/kg/d in HP-β-CD, calculated as percentage of body weight

For `CC(C)=CCc1c(O)cc(O)c2c1OC(c1ccc(O)cc1)CC2=O` (racemic) [8-Prenylnaringenin, 5,7-Dihydroxy-2-(4-hydroxyphenyl)-8-(3-methylbut-2-enyl)-chroman-4-on], the “effect on uterus growth and endometrial stimulation” value (ovariectomized rats [1]; animal study with synthetic relatively pure preparation) was “only a minimal and dose independent effect on uterus growth and endometrial stimulation”, the “effect on uterus proliferation relative to that of estradiol” value (ovariectomized rats [1]; doses equi-effective on protection of bone loss) was “less than ⅕ and 1/10” and the “estrogenic effect on the uterus, equivalent oral estradiol dose” value (ovariectomized rats [1]; extended to women treated with a bone protective dose) was 0.1 to 0.2 mg/day. For the same compound, the “estrogenic effect in bone and prostate tissue relative to estradiol” value (ERE-Luc; estimated at dosages leading to the same liver estrogenicity) was “twofold higher estrogenic effect in bone and prostate tissue than estradiol”, the “Luciferase activity, Prostate” value (ERE-Luc; male ERE-Luc mice, i.p. 30 mg/kg, six hours after the injection, controls 0.5) was 0.9 ** arbitrary units and the “estrogenic activity relative to genistein” value [2] was “at least one order of magnitude higher than that of the isoflavone genistein”. The “effect on uterus growth” value [3] was “significant effect on uterus growth at the bone loss protective dose”, the “effect on bone loss” value (ovariectomized rats [4]) was “prevents bone loss in a dose dependent manner” and the “Trabecular density at left proximal tibia, Mean” value (ovariectomized rats [5]) was 351 mg/cm3. The “Trabecular density at left proximal tibia, Median” value (ovariectomized rats [5]) was 351 mg/cm3, the “effect on the uterus and body weight compared with estradiol in the same vehicle (HP-β-CD)” value (ovariectomized rats [6]; 20 mg/kg/d vs estradiol 4 μg/kg/d, same bone effective dose) was “much lower effect on the uterus and body weight than estradiol at the same bone effective dose” and the “Relative uterus weight, Mean” value (ovariectomized rats [6]; [8]) was 0.066. For the same compound, the “Relative uterus weight, Median” value (ovariectomized rats [6]; [8]) was 0.065, the “Body weight at The end (bw4b)” value [7] was 289(8) g and the “The change in Body weight (bw4b-bw0)” value [7] was 27(2) g.
